Read-outs that look alike come from different tables or passages of the source.
Legend:
[1] = Cytotoxicity assessment in vitro (MTT assay); type: cell-based; conditions: human
Experimental: (§1) HepG2 cells of human hepatocellular carcinoma (ATCC HB-8065; passage 20–25), purchased from Health Protection Agency Culture Collections (ECACC, Salisbury, UK), were cultured in Minimum Essential Medium Eagle supplemented with 10% v/v fetal bovine serum and 1% v/v L-glutamine solution (Sigma-Aldrich, St. Louis, MO, USA) at 37 °C in a humidified atmosphere containing 5% CO2. For passaging, the cells were treated with trypsin/EDTA (Sigma-Aldrich, St. Louis, MO, USA) at 37 °C and then harvested. For the cytotoxicity evaluation, the cells treated with the test substances were used, while untreated HepG2 cells served as a control group. The cells were seeded in a 96-well plate at a density of 1 × 10^4 cells per well and incubated for 24 h. All tested compounds were dissolved in DMSO to prepare 10 mM stock solutions and diluted to the desired concentration just before the cell treatment. Cytotoxicity of all studied derivatives was screened at 10 μM concentration, and all samples were measured in triplicates. Positive and negative controls were also included. Plates were incubated for 24 h in a humidified atmosphere containing 5% CO2 at 37 °C. After the incubation, a solution of thiazolyl blue tetrazolium bromide (Sigma-Aldrich, St. Louis, MO, USA) in RPMI 1640 medium without phenol red (BioTech, Prague, Czech Republic) was added and incubated for 3 h in a humidified atmosphere containing 5% CO2 at 37 °C. Afterwards, formazan crystals were dissolved in DMSO, and the absorbance of samples was recorded at 570 nm (Synergy Neo2 Multi-Mode Reader NEO2SMALPHAB; BioTek, Winooski, VT, USA).

HepG2 cells = assay: Cytotoxicity assessment in vitro (MTT assay); type: cell-based
Experimental: as §1

[2] = test system: hepatic stage of P. berghei; assay: In vitro activity against P. berghei hepatic stages (luciferase-expressing sporozoites in Huh-7 cells, bioluminescence); type: cell-based, Plasmodium berghei; conditions: Plasmodium berghei; for activity at 1 µM / activity at 10 µM: DMSO = 100, read-out: INFECTION Ø screening
Experimental: Activity against the hepatic stage of P. berghei infection was assessed using the human hepatoma cell line Huh-7 (deposited at the Japanese Collection of Research Bioresources under JCRB0403). The protocol was previously comprehensively described by Prudêncio et al. and by Ploemen et al.. […] Cells were seeded in 96-well plates at a density of 1 × 10^4 cells per well in 100 µL of culture medium and incubated at 37 °C with 5% CO2 for approximately 18 h. […] The culture medium was substituted by infection medium with diluted compounds 1 hour in advance of infection. Luciferase-expressing P. berghei sporozoites (PbA-LuciGFPcon spz) were freshly obtained through the dissection of salivary glands from infected female Anopheles stephensi mosquitoes. Sporozoites were added to the cells at 1:1 ratio, i.e., 1 × 10^4 sporozoites were added per well, and then subjected to centrifugation at 1800× g for 5 min. The plate was then incubated for 46 h at 37 °C with 5% CO2, at which time Huh-7 cell confluency was indirectly assessed by the alamarBlue assay (Invitrogen, Waltham, MA, USA), as reported in the manufacturer’s protocol. Parasite load was assessed 48 h post-infection by a bioluminescence assay, as reported by the manufacturer (Biotium, Fremont, CA, USA). GraphPad Prism 8 (GraphPad Software, Inc., La Jolla, CA, USA) was used to obtain IC50 values using nonlinear regression analysis to fit the dose-response curves normalized results.

Huh-7 cell line = assay: Huh-7 cell confluency by alamarBlue assay during hepatic-stage test; type: cell-based
Experimental: Activity against the hepatic stage of P. berghei infection was assessed using the human hepatoma cell line Huh-7 (deposited at the Japanese Collection of Research Bioresources under JCRB0403). The protocol was previously comprehensively described by Prudêncio et al. and by Ploemen et al.. Briefly, cell culture medium consisted of 1640 RPMI medium supplemented with 10% v/v fetal calf serum, 1% v/v L-glutamine, 1% v/v nonessential amino acids, 1% v/v penicillin/streptomycin, and 10 mM HEPES, pH 7. Cells were seeded in 96-well plates at a density of 1 × 10^4 cells per well in 100 µL of culture medium and incubated at 37 °C with 5% CO2 for approximately 18 h. […] The culture medium was substituted by infection medium with diluted compounds 1 hour in advance of infection. Luciferase-expressing P. berghei sporozoites (PbA-LuciGFPcon spz) were freshly obtained through the dissection of salivary glands from infected female Anopheles stephensi mosquitoes. Sporozoites were added to the cells at 1:1 ratio, i.e., 1 × 10^4 sporozoites were added per well, and then subjected to centrifugation at 1800× g for 5 min. The plate was then incubated for 46 h at 37 °C with 5% CO2, at which time Huh-7 cell confluency was indirectly assessed by the alamarBlue assay (Invitrogen, Waltham, MA, USA), as reported in the manufacturer’s protocol. Parasite load was assessed 48 h post-infection by a bioluminescence assay, as reported by the manufacturer (Biotium, Fremont, CA, USA). GraphPad Prism 8 (GraphPad Software, Inc., La Jolla, CA, USA) was used to obtain IC50 values using nonlinear regression analysis to fit the dose-response curves normalized results.

[3] = test system: P. falciparum NF54 ring-stage synchronized cultures; assay: In vitro activity against P. falciparum blood stages (flow cytometry, SYBR green I); type: cell-based, Plasmodium falciparum; conditions: Control = 7.76333, 48 h
Experimental: Activity against the blood stage of P. falciparum infection was assessed by flow cytometry analysis following the incubation of either test compounds or the drug vehicle (DMSO) with ring-stage synchronized parasite cultures, as previously described. Stock solutions of the test compounds, as well as of the positive control compound chloroquine, were prepared in DMSO and diluted to test concentrations in complete malaria culture medium (CMCM), i.e., 1640 RPMI medium supplemented with 25 mM HEPES, 2.4 mM L-glutamine, 50 µg/mL gentamicin, 0.5% w/v Albumax, 11 mM glucose, 1.47 mM hypoxanthine, and 37.3 mM NaHCO3. Samples at tested concentration were then incubated with ring-stage synchronized cultures of P. falciparum NF54 at 2.5% hematocrit and at approximately 1% parasitemia in 96-well plates at 37 °C in a 5% CO2 and 5% O2 atmosphere. Forty-eight hours post incubation, parasite load was assessed by flow cytometry, upon staining with the DNA-specific dye SYBR green I. Approximately 100,000 events were analyzed in each flow cytometry measurement.

[4] = at 1 μM, DMSO = 100, in % (unit assumed)
[5] = at 10 μM, DMSO = 100, in % (unit assumed)

Structure (SMILES) | activity at 1 µM ([2]; Huh-7, 48 h) | activity at 10 µM ([2]; Huh-7, 48 h) | CELL CONFLUENCY Ø screening (Huh-7 cell line; human, 46 h, 1 µM, pH 7) | CELL CONFLUENCY Ø screening (Huh-7 cell line; human, 46 h, 10 µM, pH 7) | other results
COc1ccc(C(=O)O[C@@H]2CN3Cc4c(cc5c(c4OC)OCO5)[C@@]24C=C[C@H](OC)C[C@@H]34)cc1OC [28l, 11-O-(3,4-Dimethoxybenzoyl)ambelline] | 1.65% | 0.301% | 85.82 | 70.05 | viability at 24 h, 10 µM [1]: 99 ± 9%; 1. screening of cytotoxic potential, HepG2 cell line (HepG2 cells; human, 24 h, 10 µM): 106.14; 2. screening of cytotoxic potential, HepG2 cell line (HepG2 cells; human, 24 h, 10 µM): 89.55; 3. screening of cytotoxic potential, HepG2 cell line (HepG2 cells; human, 24 h, 10 µM): 102.39; Ø screening, HepG2 (sheet Graphs) (HepG2 cells; human, 24 h, 10 µM): 99.36; IC50 ([2]; Huh-7, replicate 1, unit (Table 1: µM), read-out: Antiplasmodial activity - IC50 determination, 1. measurement): 0.16 µM; IC50 ([2]; Huh-7, replicate 2, unit (Table 1: µM), read-out: Antiplasmodial activity - IC50 determination, 2. measurement): 0.135 µM; IC50 ([2]; hepatic stage, Huh-7 cells, parasite load 48 h post-infection, read-out: IC50 P. berghei): 0.147 ± 0.018 µM
COC1C=CC23c4cc5c(cc4CN(CC2OC(=O)c2cccc([N+](=O)[O-])c2)C3C1)OCO5 (centres unmarked) [29j, 11-O-(3-nitrobenzoyl)haemanthamine] | 78.2% | 48.5% | 100.8 | 94.5 | –
COc1ccccc1C(=O)OC1CN2Cc3cc4c(cc3C13C=CC(OC)CC23)OCO4 (centres unmarked) [29e, 11-O-(2-methoxybenzoyl)haemanthamine] | 67.6% | 28.8% | 124.9 | 167.5 | –
COc1ccc(C(=O)OC2CN3Cc4cc5c(cc4C24C=CC(OC)CC34)OCO5)cc1OC (centres unmarked) [29h, 11-O-(3,4-dimethoxybenzoyl)haemanthamine] | 90.4% | 46% | 101.7 | 100.3 | –
COC1C=CC23c4cc5c(cc4CN(CC2OC(=O)c2cccc(C)c2)C3C1)OCO5 (centres unmarked) [29c, 11-O-(3-methylbenzoyl)haemanthamine] | 96.8% | 28.3% | 124.3 | 135.7 | –
CCN(CC)CCCC(C)Nc1ccnc2cc(Cl)ccc12 (centres unmarked) [CQ, chloroquine, reference compound] | – | – | – | – | Ø screening, blood stage parasite load ([3]; at 10 nM): 8.54; Ø screening, blood stage parasite load ([3]; at 500 nM): 2.057; Ø screening, blood stage parasite load ([3]; at 100 nm): 2.187
COC1C=CC23c4cc5c(cc4CN(CC2OC(=O)c2ccc(C)cc2)C3C1)OCO5 (centres unmarked) [29d, 11-O-(4-methylbenzoyl)haemanthamine] | 47.8% | 29% | 120.6 | 113.7 | –
COC1C=CC23c4cc5c(cc4CN(CC2OC(=O)c2ccc([N+](=O)[O-])cc2)C3C1)OCO5 (centres unmarked) [29k, 11-O-(4-nitrobenzoyl)haemanthamine] | 63.6% | 71% | – | – | CELL CONFLUENCY Ø screening (Huh-7 cell line; [4]): 104.8; CELL CONFLUENCY Ø screening (Huh-7 cell line; [5]): 91.29
COc1ccc(C(=O)OC2CN3Cc4cc5c(cc4C24C=CC(OC)CC34)OCO5)cc1 (centres unmarked) [29g, 11-O-(4-methoxybenzoyl)haemanthamine] | 49.1% | 42.6% | 95.31 | 88.51 | –
COc1cccc2c1C(=O)c1c(O)c3c(c(O)c1C2=O)C[C@@](O)(C(=O)CO)C[C@@H]3O[C@H]1C[C@H](N)[C@H](O)[C@H](C)O1 [Doxorubicine, reference compound] | – | – | – | – | viability at 24 h, 10 µM ([1]; HepG2 cells, c = 10 µM, 24 h, MTT, read-out: HepG2 % of cell viability compared to non-treated control (100%)): 66 ± 8%; Ø screening, HepG2 (sheet Graphs) (HepG2 cells; c = 10 μM, DMSO = 100, in %): 65.91; 1. screening of cytotoxic potential, HepG2 cell line (HepG2 cells; c = 10 μM, replicate 1, in %): 62.5; 2. screening of cytotoxic potential, HepG2 cell line (HepG2 cells; c = 10 μM, replicate 2, in %): 75.09; 3. screening of cytotoxic potential, HepG2 cell line (HepG2 cells; c = 10 μM, replicate 3, in %): 60.13
COc1cc(NC(C)CCCN)c2ncccc2c1 (centres unmarked) [Primaquine, reference compound] | – | – | – | – | IC50 ([2]; Huh-7, 48 h, read-out: IC50 P. berghei): 5.74 ± 0.86 µM
COc1cccc(C(=O)OC2CN3Cc4cc5c(cc4C24C=CC(OC)CC34)OCO5)c1 (centres unmarked) [29f, 11-O-(3-methoxybenzoyl)haemanthamine] | 76.1% | 29.8% | – | – | CELL CONFLUENCY Ø screening (Huh-7 cell line; [4]): 130.9; CELL CONFLUENCY Ø screening (Huh-7 cell line; [5]): 134.6
CCC(=O)OC1CN2Cc3cc4c(cc3C13C=CC(OC)CC23)OCO4 (centres unmarked) [29a, 11-O-propionylhaemanthamine] | 87.6% | 71.9% | – | – | CELL CONFLUENCY Ø screening (Huh-7 cell line; [4]): 95.58; CELL CONFLUENCY Ø screening (Huh-7 cell line; [5]): 90.95
COc1cc(OC)cc(C(=O)OC2CN3Cc4cc5c(cc4C24C=CC(OC)CC34)OCO5)c1 (centres unmarked) [29i, 11-O-(3,5-dimethoxybenzoyl)haemanthamine] | 64% | 27.5% | 123.1 | 120.8 | –
COC1C=CC23c4cc5c(cc4CN(CC2OC(=O)C(C)C)C3C1)OCO5 (centres unmarked) [29b, 11-O-isobutanoylhaemanthamine] | 71.4% | 70.6% | – | – | CELL CONFLUENCY Ø screening (Huh-7 cell line; [4]): 106.7; CELL CONFLUENCY Ø screening (Huh-7 cell line; [5]): 111.9
